Experiments:
BI-2493 [1] = compound: T1, C[C@H]1CNCCN1c1nccc(-c2noc3c2CCC[C@@]32CCCc3sc(N)c(C#N)c32)n1 [BI-2493]; conditions: 5 days
Experimental: (§1)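 PRISM pooled barcoded cancer cell line viability screen (Broad Institute) with BI-2493 at 8 doses in threefold dilutions from 0.00457 to 10 µmol/L, 5-day treatment; curves fitted per cell line. IC50 is undefined (placeholder) for resistant lines. AUC is capped at 1, and sensitivity is reported as 1 − AUC.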

BI-2493 [2] = compound: T1, BI-2493; assay: 1 - AUC of viability dose-response curve (sensitivity) (fraction); higher = more sensitive; conditions: 5 days
Experimental: as §1

Test System	IC50 of cell viability (BI-2493 [1]) [µM]	1 - AUC of viability dose-response curve (BI-2493 [2])
IPC298_SKIN	4.47	0.0978
ISHIKAWAHERAKLIO02ER_ENDOMETRIUM	6.65	0.174
ISTMES1_PLEURA	8.84	0.0873
J82_URINARY_TRACT	5.23	0.122
JAR_PLACENTA	3.54	0.242
JEKO1_HAEMATOPOIETIC_AND_LYMPHOID_TISSUE	5.06	0.0886
JHH4_LIVER	6.96	0.071
JHH5_LIVER	0.387	0.297
JHH6_LIVER	4.43	0.0848
JHH7_LIVER	1.67	0.27
JHOC5_OVARY	5.69	0.139
JHOM1_OVARY	4.83	0.119
JHOS2_OVARY	9.64	0.0182
JHUEM7_ENDOMETRIUM	5.02	0.101
JIMT1_BREAST	5.98	0.115
JL1_PLEURA	> 10	0.13
JMSU1_URINARY_TRACT	> 10	0.00212
JOPACA1_PANCREAS	4.96	0.107

Test System	IC50 of cell viability (BI-2493 [1]) [µM]	1 - AUC of viability dose-response curve (BI-2493 [2])
JR_SOFT_TISSUE	1.44	0.275
JURLMK1_HAEMATOPOIETIC_AND_LYMPHOID_TISSUE	3.42	0.169
JVM3_HAEMATOPOIETIC_AND_LYMPHOID_TISSUE	9.45	0.105
K029AX_SKIN	7.21	0.058
K562_HAEMATOPOIETIC_AND_LYMPHOID_TISSUE	7.18	0.0609
KALS1_CENTRAL_NERVOUS_SYSTEM	9.22	0.0195
KARPAS620_HAEMATOPOIETIC_AND_LYMPHOID_TISSUE	0.866	0.326
KARPAS1718_HAEMATOPOIETIC_AND_LYMPHOID_TISSUE	4.87	0.0894
KATOIII_STOMACH	4.3	0.183
KCL22_HAEMATOPOIETIC_AND_LYMPHOID_TISSUE	6.3	0.193
KD_SOFT_TISSUE	3.6	0.114
KE37_HAEMATOPOIETIC_AND_LYMPHOID_TISSUE	6.5	0.0832
KE39_STOMACH	1.55	0.351
KE97_STOMACH	> 10	0.00627
KELLY_AUTONOMIC_GANGLIA	4.09	0.101
KHM1B_HAEMATOPOIETIC_AND_LYMPHOID_TISSUE	3.77	0.106
KKU055_BILIARY_TRACT	8.47	0.156
KKU100_BILIARY_TRACT	2.61	0.182
